Data on two compounds can be found in patent publication US7919496B2, “Heterocyclic derivatives for the treatment of diseases mediated by stearoyl-CoA desaturase enzymes” (Xenon Pharmaceuticals Inc., priority 2004, dated 2011).

`CCCCCNC(=O)c1cc(N2CCN(C(=O)c3ccccc3C(F)(F)F)CC2)nn1C(=O)OCc1ccccc1` [Example 6, 5-PENTYLCARBAMOYL-3-[4-(2-TRIFLUOROMETHYLBENZOYL)PIPERAZIN-1-YL]PYRAZOLE-1-CARBOXYLIC ACID BENZYL ESTER] returned a melting point of 58 to 61 °C.
Under `CCCCCNC(=O)c1cnc(N2CCN(C(=O)c3ccccc3C(F)(F)F)CC2)s1` [Example 7, 2-[4-(2-TRIFLUOROMETHYLBENZOYL)PIPERAZIN-1-YL]-THIAZOLE-5-CARBOXYLIC ACID PENTYLAMIDE] stands 92 to 94 °C.

One may read the melting point as the temperature of the solid-liquid transition.
